From BindingDB's records for doi:10.1021/jm960331f (Oregon State University, 1996)

Assay: determined in L-pipecolate oxidase from Rehsus monkey

Ki: 130 µM
Compound: O=C(O)[C@@H]1CCCCN1 [(S)-pipecolate]
